Drawing on patent US8541573B2, “Substituted sulfonamide compounds” (Gruenenthal GmbH, priority 2008, dated 2013), this text covers inhibition for 13 molecules.

Assay [1] has as its target T1, human B1R (Homo sapiens, UniProt P46663).
T1 construct: expressed in transfected cells; host or cells: CHO K1 cells
T1 sequence (P46663 1-353): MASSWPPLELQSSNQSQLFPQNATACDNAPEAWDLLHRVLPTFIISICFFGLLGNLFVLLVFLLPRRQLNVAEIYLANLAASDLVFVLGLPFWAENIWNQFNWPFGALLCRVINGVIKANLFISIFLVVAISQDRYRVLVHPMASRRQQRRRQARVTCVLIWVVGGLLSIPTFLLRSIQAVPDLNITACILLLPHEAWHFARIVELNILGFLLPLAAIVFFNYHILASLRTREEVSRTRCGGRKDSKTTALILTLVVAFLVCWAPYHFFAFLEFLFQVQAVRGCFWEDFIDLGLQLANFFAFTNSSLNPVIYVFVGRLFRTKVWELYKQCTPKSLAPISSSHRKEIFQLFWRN
Briefly: Functional investigation on the bradykinin 1 receptor (B1R), cell-based fluorescent calcium-mobilization assay (FLIPR/Novostar), human. Particulars: 10 μM test substance; CHO K1 cells stably transfected with human B1R gene; agonist Lys-Des-Arg9-bradykinin at EC80; % inhibition compared with maximum achievable inhibition; read-out: B1R antagonism, human [10 μM] % inhibition. The method, then:
(§1) The agonistic or antagonistic action of substances can be quantified on the bradykinin 1 receptor (B1R) of the human and rat species with ectopically expressing cell lines (CHO K1 cells) and with the aid of a Ca^2+-sensitive dyestuff (Fluo-4) in a fluorescent imaging plate reader (FLIPR). The figure in % activation is based on the Ca^2+ signal after addition of Lys-Des-Arg^9-bradykinin (0.5 nM) or Des-Arg^9-bradykinin (100 nM). Antagonists lead to a suppression of the Ca^2+ inflow after addition of the agonist. % inhibition compared with the maximum achievable inhibition is stated.
(§2) The agonistic or antagonistic action of substances can be determined on the bradykinin 1 receptor (B1R) of humans and rats by means of a cell-based flourescent calcium-mobilization assay. According to this assay agonist-induced increase of intracellular free Ca^2+ is quantified by means of a Ca^2+-sensitive dye (Fluo-4 type, Molecular Probes Europe BV, Leiden, Netherlands), in a Fluorescent Imaging Plate Reader (FLIPR, Molecular Devices, Sunnyvale, USA) and/or the Novostar (BMG Labtech GmbH, Offenburg, Germany).
(§3) Chinese hamster ovary cells (CHO K1 cells), which are stably transfected with the human B1R gene (hB1R cells) or with the B1R gene of rats (rB1R cells), are used. For functional investigations these cells are seeded into black 96-well plates with a clear bottom (BD Biosciences, Heidelberg, Germany or Greiner, Frickenhausen, Germany) in a density of 20,000-35,000 cells/well. The cells are incubated overnight in a humidified atmosphere at 37° C. and 5% CO2 in culture medium (hB1R cells: Nutrient Mixture Ham's F12, Gibco Invitrogen GmbH, Karlsruhe, Germany or DMEM, Sigma-Aldrich, Taufkirchen, Germany; rB1R cells: D-MEM/F12, Gibco Invitrogen GmbH, Karlsruhe, Germany) with 10 vol. % FBS (foetal bovine serum, Gibco Invitrogen GmbH, Karlsruhe, Germany).
(§4) On the following day the cells are loaded with the Ca^2+-sensitive dye Fluo-4-AM (Molecular Probes Europe BV, Leiden, Netherlands):
(§5) Method A: The medium of the cells is removed and cell plates are incubated with loading solution, which contains 2.13 μM Fluo-4-AM, 2.5 mM probenecid (Sigma-Aldrich, Taufkirchen, Germany), and 10 mM HEPES (Sigma-Aldrich, Taufkirchen, Germany) in HBSS buffer (Hank's buffered saline solution, Gibco Invitrogen GmbH, Karlsruhe, Germany) for 60 minutes at 37° C. After the plates are washed twice with HBSS buffer, HBSS buffer supplemented 0.1% BSA (bovine serum albumin; Sigma-Aldrich, Taufkirchen, Germany), 5.6 mM glucose and 0.05% gelatine (Merck KGaA, Darmstadt, Germany) is added. Cell plates are incubated for at least 20 minutes in the dark at room temperature before they are used for the Ca^2+ measurement in the FLIPR or Novostar.
(§6) Method B: The plates are washed with buffer A (15 mM HEPES, 80 mM NaCl, 5 mM KCl, 1.2 mM CaCl2, 0.7 mM MgSO4, 2 mg/ml glucose, 2.5 mM probenecid) and subsequently loaded with buffer A containing 2.4 μM Fluo-4-AM and 0.025% pluronic F127 (Sigma-Aldrich, Taufkirchen, Germany) for 60 minutes at 37° C. Cell plates are washed twice with buffer A. Then, buffer A supplemented with 0.05% BSA and 0.05% gelatine is added and cell plates are incubated in the dark at room temperature for at least 20 minutes before measurement in the FLIPR or Novostar is started.
(§7) The Ca^2+-dependent fluorescence is measured both before and after the addition of substances (λex=488 nm, λem=540 nm). For quantification of the effect the highest fluorescence intensity (FC, fluorescence counts) over time is given. The FLIPR protocol consists of two substance additions, done within the instrument while continuously monitoring the Ca^2+-dependent fluorescence at 540 nm. When the Novostar was used, one addition had to be done outside the instrument. Test substances (10 μM) are initially pipetted onto the cells and the intracellular Ca^2+ rise is compared with the control (hB1R: Lys-Des-Arg9-bradykinin>=50 nM; rB1R: Des-Arg9-bradykinin>=1 μM). […]

The target in assay [2] is T2, B1R of rats (Rattus norvegicus, UniProt P97583).
T2 construct: expressed in transfected cells; host or cells: CHO K1 cells
T2 sequence (P97583 1-337): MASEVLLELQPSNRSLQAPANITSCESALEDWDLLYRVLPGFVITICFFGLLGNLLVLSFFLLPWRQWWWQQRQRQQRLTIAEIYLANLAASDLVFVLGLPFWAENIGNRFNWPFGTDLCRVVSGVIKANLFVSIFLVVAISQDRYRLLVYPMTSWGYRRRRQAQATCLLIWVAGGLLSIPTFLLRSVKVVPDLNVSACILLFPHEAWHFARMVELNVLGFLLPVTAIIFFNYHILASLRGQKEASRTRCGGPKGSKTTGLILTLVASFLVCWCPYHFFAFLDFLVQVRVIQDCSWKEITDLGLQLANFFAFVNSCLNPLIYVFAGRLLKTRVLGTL
In words: Functional investigation on the bradykinin 1 receptor (B1R), cell-based fluorescent calcium-mobilization assay (FLIPR/Novostar), rat. The note with it: 10 μM test substance; CHO K1 cells stably transfected with rat B1R gene; agonist Des-Arg9-bradykinin at EC80; % inhibition compared with maximum achievable inhibition; read-out: B1R antagonism, rat [10 μM] % inhibition. The method, then:
as §1, §2, §3, §4, §5, §6, §7

The inhibition is the drop in the measured response relative to a control, in per cent. Turning to `COc1cc(C)c(S(=O)(=O)N(C)CCOCC(=O)N2CCC(CNC(=O)Cc3ccccc3)(N3CCN(C)CC3)CC2)c(C)c1` [Example 15, N-((1-(2-(2-(4-methoxy-N,2,6-trimethylphenylsulfonamido)ethoxy)acetyl)-4-(4-methylpiperazin-1-yl)piperidin-4-yl)methyl)-2-phenylacetamide], the inhibition at 10 µM is 103% in assay [1] and 101% in assay [2].
`COc1cc(C)c(S(=O)(=O)N(C)CCOCC(=O)N2CCC(CNC(=O)c3ccncc3)(N3CCN(C)CC3)CC2)c(C)c1C` [Example 51, N-((1-(2-(2-(4-Methoxy-N,2,3,6-tetramethylphenylsulfonamido)ethoxy)acetyl)-4-(4-methylpiperazin-1-yl)piperidin-4-yl)methyl)isonicotinamide]: the values for the inhibition at 10 µM in assay [1] and in assay [2] were 100% and 103%, respectively.
As for `CN1CCN(C2(CNC(=O)c3cccnc3)CCN(C(=O)CC(NS(=O)(=O)c3ccc4ccccc4c3)c3ccccc3)CC2)CC1` (centres unmarked) [Example 38, N-((4-(4-methylpiperazin-1-yl)-1-(3-(naphthalene-2-sulfonamido)-3-phenylpropanoyl)piperidin-4-yl)methyl)nicotinamide], the inhibition at 10 µM stood at 50% in assay [1] and 73% in assay [2].
As to `Cc1cccc(Cl)c1S(=O)(=O)N(CCOCC(=O)N1CCC(CNC(=O)c2ccncc2)(N2CCN(C3CC3)CC2)CC1)C1CC1` [Example 43, N-((1-(2-(2-(2-Chloro-N-cyclopropyl-6-methylphenylsulfonamido)ethoxy)-acetyl)-4-(4-cyclopropylpiperazin-1-yl)piperidin-4-yl)methyl)-isonicotinamide], the inhibition at 10 µM was determined as 100% in assay [1] and 103% in assay [2].
Taken in the same sequence, the figures for `CC(=O)NCC1(N2CCN(C)CC2)CCN(C(=O)CC(NS(=O)(=O)c2ccc3ccccc3c2)c2ccccc2)CC1` (centres unmarked) [Example 35, N-((4-(4-methylpiperazin-1-yl)-1-(3-(naphthalene-2-sulfonamido)-3-phenylpropanoyl)piperidin-4-yl)methyl)acetamide] were 89% and 102%.
`CN1CCN(C2(CNC(=O)Cc3ccccc3)CCN(C(=O)CC(NS(=O)(=O)c3ccc4ccccc4c3)c3ccccc3)CC2)CC1` (centres unmarked) [Example 8, N-((4-(4-methylpiperazin-1-yl)-1-(3-(naphthalene-2-sulfonamido)-3-phenylpropanoyl)piperidin-4-yl)methyl)-2-phenylacetamide]: the inhibition at 10 µM in assay [1] was 75%; in assay [2] it was 29%.
Taken in the same sequence, the figures for `COc1cc(C)c(S(=O)(=O)N2c3ccccc3OCC2COCC(=O)N2CCC(CNC(=O)c3ccncc3)(N3CCN(C)CC3)CC2)c(C)c1` (centres unmarked) [Example 49, N-((1-(2-((4-(4-Methoxy-2,6-dimethylphenylsulfonyl)-3,4-dihydro-2H-benzo[b][1,4]oxazin-3-yl)methoxy)acetyl)-4-(4-methylpiperazin-1-yl)piperidin-4-yl)methyl)isonicotinamide] were 100% and 102%.
Turning to `COc1cc(C)c(S(=O)(=O)N(CCOCC(=O)N2CCC(CNC(=O)c3ccncc3)(N3CCN(C4CC4)CC3)CC2)C2CC2)c(C)c1` [Example 44, N-((1-(2-(2-(N-Cyclopropyl-4-methoxy-2,6-dimethylphenylsulfonamido)ethoxy)acetyl)-4-(4-cyclopropylpiperazin-1-yl)piperidin-4-yl)methyl)isonicotinamide], the figures for the inhibition at 10 µM in assay [1] and in assay [2] were 100% and 102%, respectively.
As to `CN1CCN(C2(CNC(=O)c3ccccn3)CCN(C(=O)CC3CCCCN3S(=O)(=O)c3cccc(C(F)(F)F)c3)CC2)CC1` (centres unmarked) [Example 18, N-((4-(4-methylpiperazin-1-yl)-1-(2-(1-(3-(trifluoromethyl)phenylsulfonyl)-piperidin-2-yl)acetyl)piperidin-4-yl)methyl)picolinamide], the inhibition at 10 µM in assay [1] was 97%; in assay [2], 17%.
As to `CN1CCN(C2(CNC(=O)c3ccncc3)CCN(C(=O)COCC3CCc4ccccc4N3S(=O)(=O)c3ccc(Cl)c(Cl)c3)CC2)CC1` (centres unmarked) [Example 30, N-((1-(2-((1-(3,4-dichlorophenylsulfonyl)-1,2,3,4-tetrahydroquinolin-2-yl)methoxy)acetyl)-4-(4-methylpiperazin-1-yl)piperidin-4-yl)methyl)-isonicotinamide], the figures for the inhibition at 10 µM in assay [1] and in assay [2] were 100% and 80%, respectively.
As for `CN1CCN(C2(CNC(=O)c3ccncc3)CCN(C(=O)CC3CCCCN3S(=O)(=O)c3cccc(C(F)(F)F)c3)CC2)CC1` (centres unmarked) [Example 29, N-((4-(4-methylpiperazin-1-yl)-1-(2-(1-(3-(trifluoromethyl)phenylsulfonyl)-piperidin-2-yl)acetyl)piperidin-4-yl)methyl)isonicotinamide], the inhibition at 10 µM stood at 67% in assay [1] and 33% in assay [2].
In the same order, the values of `CC(=O)NCC1(N2CCN(C)CC2)CCN(C(=O)CC2CCCCN2S(=O)(=O)c2cccc(C(F)(F)F)c2)CC1` (centres unmarked) [Example 12, N-((4-(4-methylpiperazin-1-yl)-1-(2-(1-(3-(trifluoromethyl)phenylsulfonyl)-piperidin-2-yl)acetyl)piperidin-4-yl)methyl)acetamide] are 80% and 13%.
With `CN1CCN(C2(CNC(=O)c3cccnc3)CCN(C(=O)CC3CCCCN3S(=O)(=O)c3cccc(C(F)(F)F)c3)CC2)CC1` (centres unmarked) [Example 39, N-((4-(4-methylpiperazin-1-yl)-1-(2-(1-(3-(trifluoromethyl)phenylsulfonyl)-piperidin-2-yl)acetyl)piperidin-4-yl)methyl)nicotinamide], the inhibition at 10 µM in assay [1] was determined as 11%; in assay [2], 94%.
